Data: patent US20240115547A1, “PSYCHOTROPIC AGENTS AND USES THEREOF” (LB PHARMACEUTICALS INC., priority 2021, published 2024)

Test system: Dopamine (e.g., D2/D3)
Assay: Dopamine RO % by raclopride PET after LB-102, various dosage regimens (Example 3)
Type: in vivo, human
Conditions: for Dopamine RO % (Caudate + Putamen): group mean
Procedure: Healthy subjects were dosed orally with LB102 of 50 mg QD (n=4), 75 mg QD (n=4), 100 mg QD (n=4), 50 mg SS (n=2), or 100 mg SS (n=2). Subjects were, on average, 33 years old. Subjects dosed QD were given a single dose on day 1 after which PET scans were obtained; and subjects dosed SS, i.e., steady state, were dosed once a day for 4 days and PET scans were obtained after dosing on Day 4.
Dynamic […] raclopride PET scans were obtained 0 h, 2.5 h, 7.5 h, and 23.5 h after LB-102 administration for the 50 mg and 100 mg QD treatment groups and after LB-102 administration of Day 4 for the 50 mg SS and 100 mg SS treatment groups; and 0 h, 3.5 h, 23.5 h, and 47.5 h after LB-102 administration for the 75 mg QD treatment group. Dopamine % RO were calculated using the STRM method (https://pubmed.ncbi.nlm.nih.gov/9345505/, which is incorporated herein by reference) and the combined RO % (average of caudate and putamen RO %) are shown as squares FIGS. 5A (50 mg QD), 5B (75 mg QD), 5C (100 mg QD); and FIGS. 6A (50 mg SS Day 4) and 6B (100 mg SS Day 4); and summarized in Table 3-A below.
Dynamic ^11C raclopride PET scan results for calculation of dopamine RO % were measured in caudate, putamen, thalamus, and temporal lobe of each subject tested, and are summarized in Tables 3-B to 3-F below.

[1] = 50 mg QD, Subject 1, 2.5 h after LB-102 admin.
[2] = 50 mg QD, Subject 1, 7.5 h after LB-102 admin.
[3] = 50 mg QD, Subject 1, 23.5 h after LB-102 admin.
[4] = 50 mg QD, Subject 2, 2.5 h after LB-102 admin.
[5] = 50 mg QD, Subject 2, 7.5 h after LB-102 admin.
[6] = 50 mg QD, Subject 2, 23.5 h after LB-102 admin.
[7] = 50 mg QD, Subject 3, 7.5 h after LB-102 admin.
[8] = 50 mg QD, Subject 3, 23.5 h after LB-102 admin.
[9] = 50 mg QD, Subject 4, 2.5 h after LB-102 admin.
[10] = 50 mg QD, Subject 4, 7.5 h after LB-102 admin.
[11] = 50 mg QD, Subject 4, 23.5 h after LB-102 admin.
[12] = 50 mg SS (Day 4), Subject 1, ~3 h after LB-102 admin.
[13] = 50 mg SS (Day 4), Subject 1, ~8 h after LB-102 admin.
[14] = 50 mg SS (Day 4), Subject 1, ~24 h after LB-102 admin.
[15] = 50 mg SS (Day 4), Subject 2, ~3 h after LB-102 admin.
[16] = 50 mg SS (Day 4), Subject 2, ~8 h after LB-102 admin.
[17] = 50 mg SS (Day 4), Subject 2, ~24 h after LB-102 admin.
[18] = 75 mg QD, Subject 1, 3.5 h after LB-102 admin.
[19] = 75 mg QD, Subject 1, 23.5 h after LB-102 admin.
[20] = 75 mg QD, Subject 1, 47.5 h after LB-102 admin.
[21] = 75 mg QD, Subject 2, 3.5 h after LB-102 admin.
[22] = 75 mg QD, Subject 2, 23.5 h after LB-102 admin.
[23] = 75 mg QD, Subject 2, 47.5 h after LB-102 admin.

## CCN1CCCC1CNC(=O)c1cc(S(=O)(=O)CC)c(NC)cc1OC (stereo not shown) [LB-102]
50 mg QD, 0 h after LB-102 administration
  Dopamine RO % (Caudate + Putamen): 0%
50 mg QD, 3 h after LB-102 administration
  Dopamine RO % (Caudate + Putamen): 24%
50 mg QD, 8 h after LB-102 administration
  Dopamine RO % (Caudate + Putamen): 38%
50 mg QD, 24 h after LB-102 administration
  Dopamine RO % (Caudate + Putamen): 42%
[1]
  Dopamine RO % Caudate: 26%
  Dopamine RO % Putamen: 23%
  Dopamine RO % Temporal lobe: 25%
  Dopamine RO % Thalamus: 40%
[2]
  Dopamine RO % Caudate: 52%
  Dopamine RO % Putamen: 47%
  Dopamine RO % Temporal lobe: 32%
  Dopamine RO % Thalamus: 48%
[3]
  Dopamine RO % Caudate: 58%
  Dopamine RO % Putamen: 48%
  Dopamine RO % Temporal lobe: 30%
  Dopamine RO % Thalamus: 39%
[4]
  Dopamine RO % Caudate: 28%
  Dopamine RO % Putamen: 25%
  Dopamine RO % Temporal lobe: 16%
  Dopamine RO % Thalamus: 42%
[5]
  Dopamine RO % Caudate: 42%
  Dopamine RO % Putamen: 37%
  Dopamine RO % Temporal lobe: 14%
  Dopamine RO % Thalamus: 31%
[6]
  Dopamine RO % Caudate: 45%
  Dopamine RO % Putamen: 36%
  Dopamine RO % Temporal lobe: 11%
  Dopamine RO % Thalamus: 23%
[7]
  Dopamine RO % Caudate: 36%
  Dopamine RO % Putamen: 25%
  Dopamine RO % Temporal lobe: 20%
  Dopamine RO % Thalamus: 42%
[8]
  Dopamine RO % Caudate: 53%
  Dopamine RO % Putamen: 37%
  Dopamine RO % Temporal lobe: 18%
  Dopamine RO % Thalamus: 45%
[9]
  Dopamine RO % Caudate: 23%
  Dopamine RO % Putamen: 19%
  Dopamine RO % Temporal lobe: 23%
  Dopamine RO % Thalamus: 26%
[10]
  Dopamine RO % Caudate: 43%
  Dopamine RO % Putamen: 34%
  Dopamine RO % Temporal lobe: 43%
  Dopamine RO % Thalamus: 28%
[11]
  Dopamine RO % Caudate: 45%
  Dopamine RO % Putamen: 34%
  Dopamine RO % Temporal lobe: 45%
  Dopamine RO % Thalamus: 18%
[12]
  Dopamine RO % Caudate: 75%
  Dopamine RO % Putamen: 67%
  Dopamine RO % Temporal lobe: 18%
  Dopamine RO % Thalamus: 44%
[13]
  Dopamine RO % Caudate: 78%
  Dopamine RO % Putamen: 69%
  Dopamine RO % Temporal lobe: 17%
  Dopamine RO % Thalamus: 40%
[14]
  Dopamine RO % Caudate: 75%
  Dopamine RO % Putamen: 66%
  Dopamine RO % Temporal lobe: 35%
  Dopamine RO % Thalamus: 30%
[15]
  Dopamine RO % Caudate: 74%
  Dopamine RO % Putamen: 66%
  Dopamine RO % Temporal lobe: 26%
  Dopamine RO % Thalamus: 37%
[16]
  Dopamine RO % Caudate: 76%
  Dopamine RO % Putamen: 70%
  Dopamine RO % Temporal lobe: 25%
  Dopamine RO % Thalamus: 43%
[17]
  Dopamine RO % Caudate: 73%
  Dopamine RO % Putamen: 63%
  Dopamine RO % Temporal lobe: 34%
  Dopamine RO % Thalamus: 56%
50 mg SS (once a day for 4 days), 3 h after Day 4 administration
  Dopamine RO % (Caudate + Putamen): 69%
50 mg SS (once a day for 4 days), 24 h after Day 4 administration
  Dopamine RO % (Caudate + Putamen): 68%
50 mg SS and 100 mg SS, at least from Day 4 since the treatment began
  average dopamine (e.g., D2/D3) RO % in caudate, putamen, and thalamus: significantly stabilized
75 mg QD, 0 h after LB-102 administration
  Dopamine RO % (Caudate + Putamen): 0%
75 mg QD, 3 h after LB-102 administration
  Dopamine RO % (Caudate + Putamen): 33%
75 mg QD, 24 h after LB-102 administration
  Dopamine RO % (Caudate + Putamen): 55%
[18]
  Dopamine RO % Caudate: 27%
  Dopamine RO % Putamen: 20%
  Dopamine RO % Temporal lobe: 12%
  Dopamine RO % Thalamus: 31%
[19]
  Dopamine RO % Caudate: 70%
  Dopamine RO % Putamen: 52%
  Dopamine RO % Temporal lobe: 45%
  Dopamine RO % Thalamus: 64%
[20]
  Dopamine RO % Caudate: 53%
  Dopamine RO % Putamen: 38%
  Dopamine RO % Temporal lobe: 4%
  Dopamine RO % Thalamus: 16%
[21]
  Dopamine RO % Caudate: 53%
  Dopamine RO % Putamen: 48%
  Dopamine RO % Temporal lobe: 21%
  Dopamine RO % Thalamus: 44%
[22]
  Dopamine RO % Caudate: 58%
  Dopamine RO % Putamen: 53%
  Dopamine RO % Temporal lobe: 17%
  Dopamine RO % Thalamus: 37%
[23]
  Dopamine RO % Caudate: 45%
  Dopamine RO % Putamen: 39%
  Dopamine RO % Temporal lobe: 16%
  Dopamine RO % Thalamus: 25%
75 mg QD, Subject 3, 3.5 h after LB-102 admin.
  Dopamine RO % Caudate: 57%
